# The SangsterLogP compilation
# Key:
# [1] = method code SF-AS, from DOI: 10.2116/analsci.8.761; conditions: pH 6.0
# [2] = method code SF-AS, from DOI: 10.1021/acs.jmedchem.5b00731, PMID: 26397825; conditions: pH 7.4
# [3] = method code SF-AS, from DOI: 10.1021/jm00197a006, PMID: 533877
# [4] = not given; remark: listed apart in the source
# [5] = method code SF-AS, from DOI: 10.1081/jlc-120022394
# [6] = method code SF-HPLC, from DOI: 10.1016/0168-3659(88)90058-2; conditions: pH 7.4
# [7] = method code SF-RC, from DOI: 10.1016/j.nucmedbio.2016.05.003, PMID: 27236283; conditions: pH 7.4
# [8] = from Wadhwa, L.; Chandiran, S.; Sharma, P. (2004). Alkyl esters of 6-methoxy-2-naphthylacetic acid as potential prodrugs - Synthesis, physicochemical properties, chemical stability and enzymatic …; conditions: pH 7.4
# [9] = not given; remark: listed apart in the source
# [10] = not given; remark: listed apart in the source
# [11] = method code SF-EN, from DOI: 10.1016/s0022-2275(20)42614-8, PMID: 2280184; conditions: pH 1.0
# [12] = method code SF-AS, from DOI: 10.1021/jm00291a017, PMID: 5140011
# [13] = method code SF-AS, from Suikov, S.Yu.; Bondarenko, A.V.; Bogza, S.L.; Lutsyk, A.I. (2003). Distribution of 5-aminopyrazoles and 5-aminoisoxazoles in the octanol-water system. Ukr. Khim. Zh. (Russ. Ed.), 69(5/6)31-34.
# [14] = method code SF-RC, from DOI: 10.1016/j.nucmedbio.2016.01.003, PMID: 27067043; conditions: pH 7.4
# [15] = not given; remark: listed apart in the source
# [16] = method code SF-AS, from PMID: 7149911; conditions: pH 8.9
# [17] = not given; remark: listed apart in the source
# [18] = method code SF-AS, from DOI: 10.1093/oxfordjournals.jbchem.a131041, PMID: 939756; conditions: pH 7.4
# [19] = method code SF-AS, from DOI: 10.1016/0006-2952(90)90117-4, PMID: 2344368; conditions: pH 7.5
# [20] = method code SF-HPLC, from DOI: 10.1248/cpb.38.1906, PMID: 2268893; conditions: pH 6.9
# [21] = method code SF-AS, from DOI: 10.1016/j.bmcl.2014.05.029, PMID: 24930836
# [22] = method code RP-HPLC, from DOI: 10.1021/jm00011a007, PMID: 7540207
# [23] = method code SF, from DOI: 10.1021/jm030399c, PMID: 14711317; conditions: pH 7.4
# [24] = method code SF-FL, from DOI: 10.1016/0006-2952(96)00248-1, PMID: 8687500
# [25] = pH 7.4
# [26] = method code SF-HPLC, from DOI: 10.1016/j.ejps.2013.10.002, PMID: 24161609
# [27] = method code SF, from DOI: 10.1002/etc.5620130110
# [28] = method code SF-HPLC, from DOI: 10.1016/j.bmcl.2004.01.062, PMID: 15026043; conditions: pH 5.5
# [29] = method code SF-HPLC, from DOI: 10.1016/0378-5173(89)90133-6; conditions: pH 7.4
# [30] = not given; remark: listed apart in the source
# [31] = method code SF, from DOI: 10.1177/00220345800590120501, PMID: 6941993
# [32] = method code SF-TN, from Korenman, I M.; Gurevich, N.; Kulagina, G. (1973). Extraction of certain n-alkylamines from aqueous solutions. Zh. Prikl. Khim., 46(3)726-728.
smiles,measurement,setting,value
OCc1cc(Br)cc(Br)c1O,logD,[1],2.72
COCCOCCOCCOCCOCN(C)c1ccc(C=C2CC(=Cc3ccc(N(C)COCCOCCOCCOCCOC)cc3)C2=O)cc1,logD,[2],2.54
CC(=O)C=NO,logP,[3],0.39
CC(=O)O[C@H]1C(=O)[C@@]2(C)[C@H]([C@H](OC(=O)c3ccccc3)[C@]3(O)C[C@H](OC(=O)[C@H](O)Cc4ccccc4)C(C)=C1C3(C)C)[C@]1(OC(C)=O)CO[C@@H]1C[C@@H]2O,logP,,2.9
O=[N+]([O-])c1cncnc1,logP,[4],-0.05
CCOC(=O)C(=Cc1ccc(OC)c(OC)c1)NC=O,logP,[5],1.97
C#CC1(OC(=O)OCCCCC(O)CO)CCC2C3CCC4=CC(=O)CCC4C3CCC21CC (centres undefined),logD,[6],3.75
COc1cc(OCCF)cc(OC)c1NC(=O)c1ccc(Oc2cc3c(cc2C)CCC3(C)C)o1,logD,[7],2.1
C#CC1(OC(=O)OCC(O)CO)CCC2C3CCC4=CC(=O)CCC4C3CCC21CC (centres undefined),logD,[6],3.22
CCCCOC(=O)Cc1ccc2cc(OC)ccc2c1,logD,[8],4.75
CC(Cl)Cl,logP,[9],1.82
COC(=O)Cc1ccc2cc(OC)ccc2c1,logD,[8],3.04
O=C(O)P(=O)(O)O,logP,[10],-2
CC(CCC(=O)NCC(=O)O)C1CCC2C3C(O)CC4CC(O)CCC4(C)C3CC(C)(O)C12 (centres undefined),logD,[11],1.9
S=C1CCCN1,logP,[12],-0.05
Cc1noc(N)c1-c1ccccc1,logP,[13],2.02
COCCOCCOCCOCCOCN(C)c1ccc(C=C2CCC(=Cc3ccc(N(C)COCCOCCOCCOCCOC)cc3)C2=O)cc1,logD,[2],2.73
C=CC(=O)Nc1ccc(S(=O)(=O)N2CCN(C(=O)C34CC5CC(CC(C5)C3)C4)CC2)cc1,logD,[14],2.67
Cc1nnn[nH]1,logP,[15],-0.49
CN(N=O)C(N)=O,logD,[16],-0.4
CCN(CC)C(=O)C(C#N)=Cc1cc(OC(=O)CC(=O)C(C)(C)C)c(OC(=O)CC(=O)C(C)(C)C)c([N+](=O)[O-])c1,logP,[17],3.99
COC1=C(C2=C(OC)C(=O)c3c4c(cc(OC)c3C2=O)CC(C)OC4=O)C(=O)c2c(OC)cc3c(c2C1=O)C(=O)OC(C)C3 (centres undefined),logD,[18],0.69
COc1cccc2c1C(=O)c1c(O)c3c(c(O)c1C2=O)CC(O)(CCO)CC3OC1CC(NC(C)=O)C(O)C(C)O1 (centres undefined),logD,[19],1.56
CON=C(C(=O)NC1C(=O)N2C(C(=O)OCOC(=O)C(C)(C)C)=C(CN(C=O)C(C)=C3CCOC(=O)S3)CSC12)c1csc(N)n1 (centres undefined),logD,[20],1.37
Cc1cc2ncn(CC(O)COc3cc(OCC(O)Cn4cnc5cc(C)c(C)cc54)c4c(C)cc(=O)oc4c3)c2cc1C (centres undefined),logP,[21],0.61
COc1cc(NCCCF)cc(OC)c1NC(=O)c1ccc(Oc2cc3c(cc2C)CCC3(C)C)o1,logD,[7],1.51
CCCCCN=c1ccn(Cc2ccc3ccccc3c2)c2cc(Cl)ccc12,logP,[22],4.16
O=C(NCCOCCNc1n[n+]([O-])c2ccccc2[n+]1[O-])c1cccc2cc3ccccc3nc12,logD,[23],1.84
COc1cccc2c1C(=O)c1c(O)c3c(c(O)c1C2=O)CC(O)(C(C)=O)CC3OC1CC(NC(=O)OC2OC(C(=O)O)C(O)C(O)C2O)C(O)C(C)O1 (centres undefined),logP,[24],-2
CCCCC(OC(Cc1ccccc1)C(=O)N1CCC(OCOC)CC1)C(=O)NC(CC1CCCCC1)[C@@H](O)CC(C(=O)NCCCN/C(=N/C)NC#N)C(C)C (some centres undefined),logD,[25],4.4
COC1=C(C2=C(OC)C(=O)c3cc4c(c(O)c3C2=O)C(=O)O[C@H](C)C4)C(=O)c2c(cc3c(c2O)C(=O)O[C@H](C)C3)C1=O,logD,[18],0.37
O=C(O)/C=C/C(=O)O,logP,[26],-0.04
CCN(CC)C(=O)C(C#N)=Cc1cc(OCOC(=O)C(C)(C)C)c(OCOC(=O)C(C)(C)C)c([N+](=O)[O-])c1,logP,[17],3.86
CCCCC(OC(Cc1ccccc1)C(=O)N1CCC(OCOC)CC1)C(=O)NC(CC1CCCCC1)[C@@H](O)CC(C(=O)NCCCNC(C)=O)C(C)C (some centres undefined),logD,[25],4.3
CCOC(=O)C(=Cc1ccc(OC)cc1)NC=O,logP,[5],2.22
COP(=O)(OC)C(O)C(Cl)(Cl)Cl (centres undefined),logP,[27],1.7
CC(=O)O[C@H]1C(=O)[C@@]2(C)[C@H]([C@H](OC(=O)c3ccccc3)[C@]3(O)C[C@H](OC(=O)[C@@H](O)Cc4ccccc4)C(C)=C1C3(C)C)[C@]1(OC(C)=O)CO[C@@H]1C[C@@H]2O,logP,,2.9
CCCCCN=c1ccn(Cc2cccc3ccccc23)c2cc(Cl)ccc12,logP,[22],4.01
Cc1cc(=O)oc2cc(OCC(O)Cn3nnc4ccccc43)cc(OCC(O)Cn3nnc4ccccc43)c12 (centres undefined),logP,[21],0.48
CN(C)C(=O)Oc1ccc(CC(NC(=O)C2N(S(=O)(=O)c3cnn(C)c3)CSC2(C)C)C(=O)OCCOc2ccccc2)cc1 (centres undefined),logD,[28],3.27
CON=C(C(=O)NC1C(=O)N2C(C(=O)OCOC(=O)C(C)(C)C)=C(CN(C=O)C(C)=C(CCC(C)=O)SC(C)=O)CSC12)c1csc(N)n1 (centres undefined),logD,[20],2.16
C[C@H](CCC(=O)O)[C@H]1CC[C@H]2[C@@H]3C[C@H](O)[C@@H]4C[C@H](O)CC[C@]4(C)[C@H]3C[C@H](O)[C@]12C,logD,[11],2.8
Cc1c(-c2ccccc2)n[nH]c1N,logP,[13],1.65
COc1cccc2c1C(=O)c1c(O)c3c(c(O)c1C2=O)C[C@@](O)(C(=O)CO)C[C@@H]3O[C@H]1C[C@H](NC(C)=O)[C@H](O)[C@H](C)O1,logD,[19],1.27
OC(Cn1ccnc1)c1ccc(CCc2ccccc2)cc1 (centres undefined),logD,[29],3.4
CNC(N)=S,logP,[30],-0.68
C=COC(C)=O,logP,[31],0.6
COc1cccc2c1C(=O)c1c(O)c3c(c(O)c1C2=O)CC(O)(C(=O)CO)CC3OC1CC(NC(=O)OCc2ccc(OC3OC(C(=O)O)C(O)C(O)C3O)c([N+](=O)[O-])c2)C(O)C(C)O1 (centres undefined),logP,[24],-0.74
CCCN,logP,[32],0.28
